The NIST ThermoML archive (doi:10.1021/acs.jced.8b00524)
Numbers after ± are expanded uncertainties.

Assay: xn = mol fraction of the nth substance listed
Conditions: 100 kPa, Liquid; for viscosity: Concentric cylinders viscometry; for mass density: Vibrating tube method

CCCCOC(C)=O [butyl ethanoate] + CCCCCCCCO
Conditions	mass density [kg/m3]	viscosity [mPa·s]
293.15 K, x1 = 0.0809	828.3 ± 10	8.07 ± 0.41
293.15 K, x1 = 0.1595	831.8 ± 10	7.17 ± 0.36
293.15 K, x1 = 0.2399	835.5 ± 10	6.32 ± 0.32
293.15 K, x1 = 0.3499	840.9 ± 10	5.29 ± 0.27
293.15 K, x1 = 0.4399	845.6 ± 10	4.54 ± 0.23
293.15 K, x1 = 0.5626	852.5 ± 10	3.59 ± 0.18
293.15 K, x1 = 0.6499	857.6 ± 10	2.97 ± 0.15
293.15 K, x1 = 0.7401	863.2 ± 10	2.37 ± 0.12
293.15 K, x1 = 0.8499	870.4 ± 10	1.69 ± 0.09
293.15 K, x1 = 0.9395	876.6 ± 10	1.12 ± 0.06
293.15 K, x1 = 1	881.1 ± 10	0.732 ± 0.037
298.15 K, x1 = 0.0809	824.6 ± 10	6.69 ± 0.34
298.15 K, x1 = 0.1595	827.9 ± 10	5.9 ± 0.3
298.15 K, x1 = 0.2399	831.5 ± 10	5.19 ± 0.26
298.15 K, x1 = 0.3499	836.7 ± 10	4.32 ± 0.22
298.15 K, x1 = 0.4399	841.3 ± 10	3.7 ± 0.19
298.15 K, x1 = 0.5626	847.9 ± 10	2.93 ± 0.15
298.15 K, x1 = 0.6499	853 ± 10	2.43 ± 0.12
298.15 K, x1 = 0.7401	858.4 ± 10	1.96 ± 0.1
298.15 K, x1 = 0.8499	865.5 ± 10	1.43 ± 0.07
298.15 K, x1 = 0.9395	871.6 ± 10	0.99 ± 0.05
298.15 K, x1 = 1	876 ± 10	0.677 ± 0.034
303.15 K, x1 = 0.0809	820.8 ± 10	5.59 ± 0.28
303.15 K, x1 = 0.1595	823.9 ± 10	4.92 ± 0.25
303.15 K, x1 = 0.2399	827.4 ± 10	4.3 ± 0.22
303.15 K, x1 = 0.3499	832.4 ± 10	3.57 ± 0.18
303.15 K, x1 = 0.4399	836.8 ± 10	3.06 ± 0.15
303.15 K, x1 = 0.5626	843.2 ± 10	2.42 ± 0.12
303.15 K, x1 = 0.6499	848.1 ± 10	2.01 ± 0.1
303.15 K, x1 = 0.7401	853.4 ± 10	1.63 ± 0.08
303.15 K, x1 = 0.8499	860.3 ± 10	1.22 ± 0.06
303.15 K, x1 = 0.9395	866.4 ± 10	0.88 ± 0.05
303.15 K, x1 = 1	870.9 ± 10	0.628 ± 0.032
308.15 K, x1 = 0.0809	817.1 ± 10	4.72 ± 0.24
308.15 K, x1 = 0.1595	820.1 ± 10	4.15 ± 0.21
308.15 K, x1 = 0.2399	823.4 ± 10	3.61 ± 0.18
308.15 K, x1 = 0.3499	828.1 ± 10	2.99 ± 0.15
308.15 K, x1 = 0.4399	832.3 ± 10	2.56 ± 0.13
308.15 K, x1 = 0.5626	838.5 ± 10	2.05 ± 0.1
308.15 K, x1 = 0.6499	843.2 ± 10	1.73 ± 0.09
308.15 K, x1 = 0.7401	848.4 ± 10	1.42 ± 0.07
308.15 K, x1 = 0.8499	855.3 ± 10	1.08 ± 0.06
308.15 K, x1 = 0.9395	861.2 ± 10	0.79 ± 0.04
308.15 K, x1 = 1	865.7 ± 10	0.585 ± 0.03
313.15 K, x1 = 0.0809	813.3 ± 10	4.01 ± 0.2
313.15 K, x1 = 0.1595	815.9 ± 10	3.52 ± 0.18
313.15 K, x1 = 0.2399	818.9 ± 10	3.06 ± 0.15
313.15 K, x1 = 0.3499	823.3 ± 10	2.53 ± 0.13
313.15 K, x1 = 0.4399	827.3 ± 10	2.17 ± 0.11
313.15 K, x1 = 0.5626	833.3 ± 10	1.75 ± 0.09
313.15 K, x1 = 0.6499	838 ± 10	1.48 ± 0.07
313.15 K, x1 = 0.7401	843.1 ± 10	1.24 ± 0.06
313.15 K, x1 = 0.8499	849.9 ± 10	0.95 ± 0.05
313.15 K, x1 = 0.9395	855.8 ± 10	0.71 ± 0.04
313.15 K, x1 = 1	860.5 ± 10	0.546 ± 0.028
318.15 K, x1 = 0.0809	809.4 ± 10	3.44 ± 0.17
318.15 K, x1 = 0.1595	811.9 ± 10	3.01 ± 0.15
318.15 K, x1 = 0.2399	814.6 ± 10	2.62 ± 0.13
318.15 K, x1 = 0.3499	818.8 ± 10	2.17 ± 0.11
318.15 K, x1 = 0.4399	822.6 ± 10	1.87 ± 0.09
318.15 K, x1 = 0.5626	828.4 ± 10	1.51 ± 0.08
318.15 K, x1 = 0.6499	832.9 ± 10	1.3 ± 0.07
318.15 K, x1 = 0.7401	838 ± 10	1.08 ± 0.05
318.15 K, x1 = 0.8499	844.7 ± 10	0.84 ± 0.04
318.15 K, x1 = 0.9395	850.7 ± 10	0.65 ± 0.03
318.15 K, x1 = 1	855.3 ± 10	0.512 ± 0.026
323.15 K, x1 = 0.0809	805.6 ± 10	2.97 ± 0.15
323.15 K, x1 = 0.1595	807.8 ± 10	2.6 ± 0.13
323.15 K, x1 = 0.2399	810.4 ± 10	2.26 ± 0.11
323.15 K, x1 = 0.3499	814.3 ± 10	1.86 ± 0.09
323.15 K, x1 = 0.4399	817.9 ± 10	1.6 ± 0.08
323.15 K, x1 = 0.5626	823.5 ± 10	1.3 ± 0.07
323.15 K, x1 = 0.6499	828 ± 10	1.12 ± 0.06
323.15 K, x1 = 0.7401	832.9 ± 10	0.96 ± 0.05
323.15 K, x1 = 0.8499	839.5 ± 10	0.76 ± 0.04
323.15 K, x1 = 0.9395	845.5 ± 10	0.6 ± 0.03
323.15 K, x1 = 1	850.1 ± 10	0.485 ± 0.025
